Where “and” joins values, the source holds several entries; their conditions need not be identical. Identical values can stand only once. Like-named read-outs stand apart in the source and are kept apart here.
What was measured:
human 17β-HSD1 = molecular target: T1, human 17β-HSD1 (Homo sapiens, UniProt P14061); experiment: Inhibition of human 17β-HSD1 (conversion of [3H]-E1 to E2, HPLC radioflow detection); type: biochemical
T1 construct: For the partial purification of 17β-HSD1, the cytosolic fraction was precipitated with ammonium sulfate; from tissue; host or cells: human placenta, cytosolic fraction, ammonium sulfate precipitate
T1 sequence (P14061 1-328): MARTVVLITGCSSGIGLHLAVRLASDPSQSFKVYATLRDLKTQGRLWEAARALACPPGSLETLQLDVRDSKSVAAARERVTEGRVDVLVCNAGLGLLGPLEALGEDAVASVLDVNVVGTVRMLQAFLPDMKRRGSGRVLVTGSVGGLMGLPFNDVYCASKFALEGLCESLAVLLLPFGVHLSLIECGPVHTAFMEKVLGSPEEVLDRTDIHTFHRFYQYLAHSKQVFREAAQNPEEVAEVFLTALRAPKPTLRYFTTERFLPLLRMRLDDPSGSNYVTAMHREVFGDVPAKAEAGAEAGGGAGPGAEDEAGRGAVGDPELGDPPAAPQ

human 17β-HSD2 = molecular target: T2, human 17β-HSD2 (Homo sapiens, UniProt P37059); experiment: Inhibition of human 17β-HSD2 (conversion of [3H]-E2 to E1); type: biochemical; conditions: for IC50: read-out: IC50 [nM] h17β-HSD2
T2 construct: 17β-HSD2 was obtained from the microsomal fraction; from tissue; host or cells: human placenta, microsomal fraction
T2 sequence (P37059 1-387): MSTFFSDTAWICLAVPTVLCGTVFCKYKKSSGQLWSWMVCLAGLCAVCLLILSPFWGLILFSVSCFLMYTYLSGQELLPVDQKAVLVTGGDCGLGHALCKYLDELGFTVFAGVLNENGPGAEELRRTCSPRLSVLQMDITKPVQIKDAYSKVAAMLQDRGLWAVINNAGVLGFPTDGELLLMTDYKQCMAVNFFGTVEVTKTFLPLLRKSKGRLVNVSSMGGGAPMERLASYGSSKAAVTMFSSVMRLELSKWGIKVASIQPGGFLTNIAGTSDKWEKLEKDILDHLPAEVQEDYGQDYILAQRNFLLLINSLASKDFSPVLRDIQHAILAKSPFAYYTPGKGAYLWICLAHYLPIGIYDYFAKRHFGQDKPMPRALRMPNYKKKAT

mouse 17β-HSD1 = molecular target: T3, mouse 17β-HSD1 (Mus musculus, UniProt P51656); experiment: Inhibition of mouse 17β-HSD1 (recombinant, HEK293 lysate); type: biochemical
T3 construct: made in house; host or cells: HEK293 cells, transient transfection; 1,000 g supernatant of the cell lysate
T3 sequence (P51656 1-344): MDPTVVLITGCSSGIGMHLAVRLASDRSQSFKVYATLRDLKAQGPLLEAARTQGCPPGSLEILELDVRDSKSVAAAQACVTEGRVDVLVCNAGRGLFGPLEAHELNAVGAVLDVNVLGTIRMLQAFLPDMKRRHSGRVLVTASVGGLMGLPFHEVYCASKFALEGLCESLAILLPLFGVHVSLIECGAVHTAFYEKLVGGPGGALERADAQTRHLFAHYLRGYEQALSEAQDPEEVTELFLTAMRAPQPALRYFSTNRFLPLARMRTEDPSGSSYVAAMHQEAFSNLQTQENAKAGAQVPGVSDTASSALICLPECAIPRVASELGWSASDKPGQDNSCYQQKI

mouse 17β-HSD2 = molecular target: T4, mouse 17β-HSD2 (Mus musculus, UniProt P51658); experiment: Inhibition of mouse 17β-HSD2 (liver microsomal fraction); type: biochemical; conditions: for inhibition at 1 µM: read-out: Inhibition @ 1 μM m17β-HSD2; for IC50: read-out: IC50 m17β-HSD2
T4 construct: The pellet fractions containing the microsomal 17β-HSD2 were used for the determination of E1 formation; from tissue; host or cells: mouse liver, microsomal fraction
T4 sequence (P51658 1-381): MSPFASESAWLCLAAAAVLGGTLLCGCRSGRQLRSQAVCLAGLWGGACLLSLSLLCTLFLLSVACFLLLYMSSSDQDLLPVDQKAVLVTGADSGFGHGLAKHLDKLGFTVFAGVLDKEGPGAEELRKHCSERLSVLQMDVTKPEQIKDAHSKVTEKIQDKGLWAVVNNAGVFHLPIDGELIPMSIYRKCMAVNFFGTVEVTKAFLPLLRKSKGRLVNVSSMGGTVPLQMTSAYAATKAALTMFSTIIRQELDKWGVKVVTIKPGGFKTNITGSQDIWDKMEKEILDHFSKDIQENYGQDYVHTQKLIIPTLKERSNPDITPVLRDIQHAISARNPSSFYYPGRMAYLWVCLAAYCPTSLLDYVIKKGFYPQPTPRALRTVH

in vitro = conditions: human, pooled human liver S9 fraction
[1] = human liver S9, 1 mg/mL; unit not given
rat 17β-HSD1 = molecular target: T5, rat 17β-HSD1 (Rattus norvegicus, UniProt P51657); experiment: Inhibition of rat 17β-HSD1 (recombinant, HEK293 lysate); type: biochemical; conditions: for inhibition at 5 µM: Cmpd conc. 5000 nM; for inhibition at 5 µM / inhibition at […]: read-out: % Inhibition r17β-HSD1
T5 construct: made in house; host or cells: HEK293 cells, transient transfection; 1,000 g supernatant of the cell lysate
T5 sequence (P51657 1-344): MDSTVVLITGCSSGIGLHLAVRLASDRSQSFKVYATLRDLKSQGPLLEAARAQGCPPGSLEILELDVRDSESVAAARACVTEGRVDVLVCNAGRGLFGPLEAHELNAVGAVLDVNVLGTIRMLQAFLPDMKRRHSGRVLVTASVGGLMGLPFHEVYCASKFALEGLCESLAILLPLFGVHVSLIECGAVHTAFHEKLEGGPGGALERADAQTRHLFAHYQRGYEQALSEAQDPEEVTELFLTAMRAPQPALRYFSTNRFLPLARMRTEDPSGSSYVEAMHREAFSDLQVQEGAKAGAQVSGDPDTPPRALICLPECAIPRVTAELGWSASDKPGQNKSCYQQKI

rat 17β-HSD2 = molecular target: T6, rat 17β-HSD2 (Rattus norvegicus, UniProt Q62730); experiment: Inhibition of rat 17β-HSD2 (liver microsomal fraction); type: biochemical; conditions: read-out: % Inhibition r17β-HSD2
T6 construct: The pellet fractions containing the microsomal 17β-HSD2 were used for the determination of E1 formation; from tissue; host or cells: rat liver, microsomal fraction
T6 sequence (Q62730 1-381): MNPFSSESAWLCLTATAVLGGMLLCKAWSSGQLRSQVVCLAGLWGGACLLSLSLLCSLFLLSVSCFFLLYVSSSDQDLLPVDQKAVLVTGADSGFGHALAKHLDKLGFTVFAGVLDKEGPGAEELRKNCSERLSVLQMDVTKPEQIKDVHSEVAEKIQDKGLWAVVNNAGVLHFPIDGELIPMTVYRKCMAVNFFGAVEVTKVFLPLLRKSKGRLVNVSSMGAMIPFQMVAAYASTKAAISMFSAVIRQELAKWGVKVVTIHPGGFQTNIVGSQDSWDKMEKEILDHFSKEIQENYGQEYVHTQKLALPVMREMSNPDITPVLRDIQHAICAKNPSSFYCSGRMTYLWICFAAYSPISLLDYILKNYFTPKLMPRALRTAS

[2] = human placental cytosolic enzyme, E1 500 nM, NADH, Tables 1, 4-11, read-out: IC50 [nM] h17β-HSD1
[3] = read-out: Inhibition @ 1 μM m17β-HSD1
[4] = read-out: % inhibition m17β-HSD1 @ 1 μM

O=C(c1ccc(-c2cccc(Cl)c2)s1)c1c(F)ccc(O)c1F [Compound 11, [5-(3-Chloro-phenyl)-thiophen-2-yl]-(2,6-difluoro-3-hydroxy-phenyl)-methanone]
IC50 (human 17β-HSD1; [2]): 1.2 nM
IC50 (human 17β-HSD2): 10 nM
inhibition at 1 µM (mouse 17β-HSD1; [3]): 60%
inhibition at 1 µM (mouse 17β-HSD2): 75%
half-life at 1 µM (in vitro): 4.3 min
CLint [1]: 160.7

O=C(c1ccc(-c2cc(Cl)c(O)c(Cl)c2)s1)c1c(F)ccc(O)c1F [Compound 23, [5-(3,5-Dichloro-4-hydroxy-phenyl)-thiophen-2-yl]-(2,6-difluoro-3-hydroxy-phen-yl)-methanone]
IC50 (human 17β-HSD1; read-out: IC50 [nM] h17β-HSD1): 2.4 nM
IC50 (human 17β-HSD2): 39 nM
inhibition at 1 µM (mouse 17β-HSD1; [3]): 23%
IC50 (mouse 17β-HSD2): 209 nM
inhibition at 5 µM (rat 17β-HSD1): 59%
half-life at 1 µM (in vitro): 129 min
CLint [1]: 5.4

COc1c(Cl)cc(-c2ccc(C(=O)c3c(F)ccc(O)c3F)s2)cc1Cl [Compound 15, [5-(3,5-Dichloro-4-methoxy-phenyl)-thiophen-2-yl]-(2,6-difluoro-3-hydroxy-phen-yl)-methanone]
IC50 (human 17β-HSD1; [2]): 0.6 nM
IC50 (human 17β-HSD2): 41 nM
inhibition at 1 µM (mouse 17β-HSD1; [3]): 43%
IC50 (mouse 17β-HSD2; mouse liver microsomal fraction, E2 10 nM, NAD+): 550 nM
half-life at 1 µM (in vitro): 18.1 min
CLint [1]: 38.3

O=C(c1ccc(-c2cccc(NS(=O)(=O)c3ccccc3OC(F)(F)F)c2)s1)c1cc(F)c(F)c(O)c1F [Compound 37, N-{3-[5-(2,4,5-Trifluoro-3-hydroxybenzoyl)thiophen-2-yl]phenyl}-2-trifluoromethoxybenzenesulfonamide]
IC50 (human 17β-HSD1; [2]): 5.8 nM
inhibition at 1 µM (mouse 17β-HSD1; [4]): 55%
inhibition at 1 µM (mouse 17β-HSD1; [3]): 55%
IC50 (mouse 17β-HSD2): 79 nM and 22 nM
inhibition at […] (rat 17β-HSD1; Cmpd conc. 250 nM): 29%
inhibition at […] (rat 17β-HSD2): 93%

Cc1cc(-c2ccc(C(=O)c3cc(F)c(F)c(O)c3F)s2)cc(C)c1O [Compound 50, (5-(4-Hydroxy-3,5-dimethylphenyl)thiophen-2-yl)(2,4,5-trifluoro-3-hydroxyphenyl)methanone]
IC50 (human 17β-HSD1; [2]): 0.9 nM
IC50 (human 17β-HSD2): 1.3 nM
IC50 (mouse 17β-HSD1; recombinant mouse enzyme, E1 10 nM, NADPH, read-out: IC50 m17β-HSD1): 650 nM
IC50 (mouse 17β-HSD2): 100 nM
half-life at 1 µM (in vitro): 38 min
CLint [1]: 18.2

O=C(c1ccc(-c2cc(Cl)c(O)c(Cn3ccnn3)c2)s1)c1c(F)ccc(O)c1F [Compound 32, [5-(3-Chloro-4-hydroxy-5-[1,2,3]triazol-1-ylmethyl-phenyl)-thiophen-2-yl]-(2,6-difluoro-3-hydroxy-phenyl)-methanone]
inhibition at 1 µM (human 17β-HSD1; read-out: % inhibition h17β-HSD1 @ 1 μM): 37%
inhibition at 1 µM (human 17β-HSD2; read-out: % inhibition h17β-HSD2 @ 1 μM): 30%
Inhibition @ 1 μM m17β-HSD1 (mouse 17β-HSD1; compound 1 μM, Table 1, bare numbers): n.i.^c
% Inhibition r17β-HSD1 (rat 17β-HSD1; Cmpd conc. 250 nM): n.i.^c
inhibition at […] (rat 17β-HSD2): 66%

O=C(c1ccc(-c2cccc(NS(=O)(=O)c3ccccc3C(F)(F)F)c2)s1)c1cc(F)c(F)c(O)c1F [Compound 38, N-{3-[5-(2,4,5-Trifluoro-3-hydroxybenzoyl)thiophen-2-yl]phenyl}-2-trifluoromethylbenzenesulfonamide]
IC50 (human 17β-HSD1): 4.8 nM
inhibition at 1 µM (mouse 17β-HSD1; [4]): 81%
inhibition at 1 µM (mouse 17β-HSD1; [3]): 81%
inhibition at […] (rat 17β-HSD1; Cmpd conc. 250 nM): 41%
inhibition at […] (rat 17β-HSD2): 96%

Cc1cc(C(=O)c2c(F)ccc(O)c2F)sc1-c1ccc(O)c(Cl)c1 [Compound 21, [5-(3-Chloro-4-hydroxy-phenyl)-4-methyl-thiophen-2-yl]-(2,6-difluoro-3-hydroxy-phenyl)-methanone]
IC50 (human 17β-HSD1; [2]): 0.8 nM
IC50 (human 17β-HSD2): 11 nM
inhibition at 1 µM (mouse 17β-HSD1; [3]): 38%
IC50 (mouse 17β-HSD2): 78 nM
half-life at 1 µM (in vitro): 2.9 min
CLint [1]: 241.4

O=C(c1ccc(-c2cccc(NS(=O)(=O)c3ccc(Br)cc3OC(F)(F)F)c2)s1)c1cc(F)c(F)c(O)c1F [Compound 36, 4-Bromo-N-{3-[5-(2,4,5-trifluoro-3-hydroxybenzoyl)thiophen-2-yl]phenyl}-2-trifluoromethoxybenzenesulfonamide]
IC50 (human 17β-HSD1): 2.4 nM
inhibition at 1 µM (mouse 17β-HSD1; [4]): 68%
inhibition at 1 µM (mouse 17β-HSD1; [3]): 68%
inhibition at […] (rat 17β-HSD1; Cmpd conc. 250 nM): 50%
inhibition at […] (rat 17β-HSD2): 100%

Cc1cc(-c2ccc(C(=O)c3cccc(O)c3)s2)ccc1O [Compound F1, reference compound]
IC50 (human 17β-HSD1; read-out: IC50 [nM] h17β-HSD1): 8 nM
IC50 (human 17β-HSD2): 384 nM
inhibition at 1 µM (mouse 17β-HSD1; [3]): 18%
inhibition at 1 µM (mouse 17β-HSD2): 22%
inhibition at 5 µM (rat 17β-HSD1): 48%
half-life at 1 µM (in vitro): 3.6 min
CLint [1]: 193.8

COc1ccc(-c2ccc(C(=O)c3c(F)ccc(O)c3F)s2)cc1Cl [Compound 12, [5-(3-Chloro-4-methoxy-phenyl)-thiophen-2-yl]-(2,6-difluoro-3-hydroxy-phenyl)-methanone]
IC50 (human 17β-HSD1; [2]): 1.3 nM
IC50 (human 17β-HSD2): 11 nM
inhibition at 1 µM (mouse 17β-HSD1; [3]): 40%
inhibition at 1 µM (mouse 17β-HSD2): 64%
half-life at 1 µM (in vitro): 4.6 min
CLint [1]: 149.6

N#Cc1cc(-c2ccc(C(=O)c3c(F)ccc(O)c3F)s2)ccc1O [Compound 25, 5-[5-(2,6-Difluoro-3-hydroxy-benzoyl)-thiophen-2-yl]-2-hydroxy-benzonitrile]
IC50 (human 17β-HSD1; [2]): 3.3 nM
IC50 (human 17β-HSD2): 29 nM
inhibition at 1 µM (mouse 17β-HSD1; [3]): 23%
inhibition at 1 µM (mouse 17β-HSD2): 40%
half-life at 1 µM (in vitro): 10.7 min
CLint [1]: 64.5

O=C(c1ccc(-c2ccc(O)c(Cl)c2)s1)c1cc(F)c(F)c(O)c1F [Compound 41, (5-(3-Chloro-4-hydroxyphenyl)thiophen-2-yl)(2,4,5-trifluoro-3-hydroxyphenyl)methanone]
IC50 (human 17β-HSD1; [2]): 1.1 nM
IC50 (human 17β-HSD2): 3.1 nM
inhibition at 1 µM (mouse 17β-HSD1; [3]): 33%
inhibition at 1 µM (mouse 17β-HSD2): 89%
half-life at 1 µM (in vitro): 11.3 min
CLint [1]: 61.5
